# Source: patent US12139520B2 (priority 2020, dated 2024)
# Numbered stars: 1 amine (or outer) side, 2 acyl side, 3 side chain; on linkers, the order of the positions; unused ones are H or OH. Bridge positions count the residues as written; N and C are the ends. Square brackets hold non-standard residues; d marks the D form. Peptide text beside a SMILES is read from it. * marks the point of attachment. C20 diacid = O=C(O)CCCCCCCCCCCCCCCCCCC(=O)*; γGlu = O=C(O)[C@H](CCC(=O)[*:2])N[*:1]; Hyp = O=C(O)[C@@H]1C[C@@H](O)CN1
# Tests used:
# hAMY3 receptor = target: T1, hAMY3 receptor (Homo sapiens, UniProt O60896+P30988); test: cAMP assay for in vitro receptor activation, hAMY3-R; type: cell-based; conditions: cAMP assay, hAMY3 receptor; read-out: hAMY3R EC50
# T1 sequence (P30988 25-474): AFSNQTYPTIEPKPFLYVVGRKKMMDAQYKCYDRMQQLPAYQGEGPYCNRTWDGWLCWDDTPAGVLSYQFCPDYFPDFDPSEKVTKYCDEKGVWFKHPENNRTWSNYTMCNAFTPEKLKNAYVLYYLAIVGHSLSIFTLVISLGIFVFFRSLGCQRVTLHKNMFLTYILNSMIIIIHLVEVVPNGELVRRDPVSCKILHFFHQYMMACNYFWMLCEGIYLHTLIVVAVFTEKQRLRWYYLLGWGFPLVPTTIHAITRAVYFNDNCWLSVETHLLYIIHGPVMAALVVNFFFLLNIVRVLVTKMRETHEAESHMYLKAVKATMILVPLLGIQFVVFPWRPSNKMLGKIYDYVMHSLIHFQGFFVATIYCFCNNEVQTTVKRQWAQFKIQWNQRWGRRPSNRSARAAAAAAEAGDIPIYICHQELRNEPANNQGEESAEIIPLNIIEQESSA
# T1 sequence (O60896 24-148 partner): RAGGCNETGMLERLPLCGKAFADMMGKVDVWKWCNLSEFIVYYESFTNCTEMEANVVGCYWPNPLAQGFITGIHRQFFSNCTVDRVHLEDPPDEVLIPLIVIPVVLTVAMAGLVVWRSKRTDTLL
# Procedure, shortened: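 Read-out is TR-FRET cAMP signal, recorded one hour after reagent addition, following 30 min room-temperature stimulation of stable hAMY3 cells with graded compound doses in casein/IBMX (0.5 mM) buffer.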
# [1] = Acute food intake study in lean rats; type: in vivo, rat; conditions: single SC injection, lean healthy rats; for Average cumulative food intake: up to 48 h, P < 0.001 vs vehicle
# Description: General Protocols for Acute Food Intake Study
# The effect on cumulative food intake was measured in male Sprague Dawley rats (6 weeks of age, Taconic, Denmark) following a single dose using a fully automated food intake monitoring system (HM-2; MBRose ApS, Faaborg, Denmark), allowing for advanced synchronous real-time monitoring of food intake behaviour of individual animals. The animals were housed in groups of 4 in a light-, temperature-, and humidity-controlled room (a 12/12 LD cycle, lights on at 02:00 AM; 22±2° C.; 50% relative humidity). The mice had ad libitum access to regular chow diet (Altromin 1324, Brogaarden A/S, Lynge, Denmark) and domestic quality tap water. Mice arrived at day 7, and a minimum of 5 days of habituation to the system was allowed prior to beginning of the study. During these days, the animals were handled daily to accustom them to the experimental paradigm. On the day of dosing, the animals were randomized into groups according to body weight. Animals were fasted for four hours prior to dosing. Animals were dosed SC 30 or 180 min prior to lights out, and food intake data were collected automatically for a total of 48 h post-dosing with automatic food recordings every 5 min.
# hAM1 receptor = hAM1 receptor (Homo sapiens, UniProt O60895+Q16602); test: cAMP assay for in vitro receptor activation, hAM1-R; type: cell-based; conditions: cAMP assay, hAM1 receptor; read-out: hAM1R EC50
# Procedure, shortened: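 A subcloned monoclonal line stably expressing hAM1 receptor is thawed and plated at 8000 cells/well. The assay buffer is DPBS with 0.05% casein and 0.5 mM IBMX, and receptor activation is followed by cAMP levels.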
# Sequence of hAM1 receptor (Q16602 23-461): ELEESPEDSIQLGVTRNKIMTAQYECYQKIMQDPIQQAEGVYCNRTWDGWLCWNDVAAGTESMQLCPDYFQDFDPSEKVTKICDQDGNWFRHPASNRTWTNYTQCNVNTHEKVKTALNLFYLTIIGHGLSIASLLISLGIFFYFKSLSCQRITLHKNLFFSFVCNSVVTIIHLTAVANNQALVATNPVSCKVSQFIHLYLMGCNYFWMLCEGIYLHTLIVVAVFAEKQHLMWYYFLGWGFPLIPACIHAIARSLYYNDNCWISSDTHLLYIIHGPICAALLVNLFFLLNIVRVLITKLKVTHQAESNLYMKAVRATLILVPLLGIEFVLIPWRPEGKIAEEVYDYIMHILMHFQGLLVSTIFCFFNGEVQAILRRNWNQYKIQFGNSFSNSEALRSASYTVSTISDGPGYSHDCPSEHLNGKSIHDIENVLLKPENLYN
# Sequence of hAM1 receptor (O60895 43-175 partner): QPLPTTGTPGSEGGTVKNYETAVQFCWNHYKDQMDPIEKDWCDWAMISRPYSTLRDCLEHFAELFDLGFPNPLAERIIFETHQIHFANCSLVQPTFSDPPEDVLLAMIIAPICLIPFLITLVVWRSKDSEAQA
SMILES,EC50 (hAMY3 receptor),"cumulative food intake, % to vehicle ([1]; 10 nmol/kg)",Average cumulative food intake ([1]; 10 nmol/kg),"cumulative food intake, % to vehicle ([1]; 30 nmol/kg)",Average cumulative food intake ([1]; 30 nmol/kg),EC50 (hAM1 receptor)
CC[C@H](C)[C@H](NC(=O)[C@H](CCC(N)=O)NC(=O)[C@H](Cc1c[nH]cn1)NC(=O)[C@H](C)NC(=O)[C@H](CC(C)C)NC(=O)[C@H](CCCNC(=N)N)NC(=O)[C@H](CCC(N)=O)NC(=O)[C@@H](NC(=O)[C@@H](NC(=O)[C@@H]1CSSC[C@H](NC(=O)[C@H](CCCCN)NC(=O)CC[C@H](NC(=O)CCCCCCCCCCCCCCCCCCC(=O)O)C(=O)O)C(=O)N[C@@H](CC(N)=O)C(=O)N[C@@H]([C@@H](C)O)C(=O)N[C@@H](C)C(=O)N[C@@H]([C@@H](C)O)C(=O)N1)[C@@H](C)O)C(C)C)C(=O)N[C@@H](Cc1ccc(O)cc1)C(=O)N[C@@H](CCC(N)=O)C(=O)N[C@@H](Cc1ccccc1)C(=O)N[C@H](C(=O)N[C@@H](CC(=O)O)C(=O)N[C@@H](CCCCN)C(=O)N[C@@H](CC(=O)O)C(=O)N[C@@H](CCCCN)C(=O)N[C@@H](CC(=O)O)C(=O)N[C@@H](CC(N)=O)C(=O)N[C@H](C(=O)N[C@@H](C)C(=O)N1CCC[C@H]1C(=O)N1CCC[C@H]1C(=O)N[C@H](C(=O)N[C@@H](CCCCN)C(=O)N[C@H](C(=O)NCC(=O)N[C@@H](CO)C(=O)N[C@@H](CC(N)=O)C(=O)NCC(=O)N1C[C@H](O)C[C@H]1C(N)=O)C(C)C)[C@@H](C)O)C(C)C)[C@@H](C)O [compound 60] ({C20 diacid-γGlu}-KCNTATCTVQRLAHQIYQFTDKDKDNVAPPTKVGSNG[Hyp]-NH2; disulfide 2-7),0.012 nM,69.59%,30.9 g,45.72%,20.3 g,> 5000 nM
CC[C@H](C)[C@H](NC(=O)[C@H](CCC(N)=O)NC(=O)[C@H](Cc1c[nH]cn1)NC(=O)[C@H](C)NC(=O)[C@H](CC(C)C)NC(=O)[C@H](CCCNC(=N)N)NC(=O)[C@H](CCC(N)=O)NC(=O)[C@@H](NC(=O)[C@@H](NC(=O)[C@@H]1CSSC[C@H](NC(=O)[C@H](CCCCN)NC(=O)CC[C@H](NC(=O)CCCCCCCCCCCCCCCCCCC(=O)O)C(=O)O)C(=O)N[C@@H](CC(N)=O)C(=O)N[C@@H]([C@@H](C)O)C(=O)N[C@@H](C)C(=O)N[C@@H]([C@@H](C)O)C(=O)N1)[C@@H](C)O)C(C)C)C(=O)N[C@H](C(=O)N[C@@H](CCC(N)=O)C(=O)N[C@@H](Cc1ccccc1)C(=O)N[C@H](C(=O)N[C@@H](CC(=O)O)C(=O)N[C@@H](CCCCN)C(=O)N[C@@H](CC(=O)O)C(=O)N[C@@H](CCCCN)C(=O)N[C@@H](CC(=O)O)C(=O)N[C@@H](CC(N)=O)C(=O)N[C@H](C(=O)N[C@@H](C)C(=O)N1CCC[C@H]1C(=O)N1CCC[C@H]1C(=O)N[C@H](C(=O)N[C@@H](CC(N)=O)C(=O)N[C@H](C(=O)NCC(=O)N[C@@H](CO)C(=O)N[C@@H](CC(N)=O)C(=O)NCC(=O)N1C[C@H](O)C[C@H]1C(N)=O)C(C)C)[C@@H](C)O)C(C)C)[C@@H](C)O)C(C)C [compound 85] ({C20 diacid-γGlu}-KCNTATCTVQRLAHQIVQFTDKDKDNVAPPTNVGSNG[Hyp]-NH2; disulfide 2-7),0.015 nM,45.70%,18.6 g,,,> 5000 nM
